Results taken from US20230365563A1, “QUINAZOLINE COMPOUND AND APPLICATION THEREOF” (SHANGHAI PHARMACEUTICALS HOLDING CO., LTD., priority 2020, published 2023).
Counter-ions that a name gives are not always drawn.

molecular target: T1, KRAS-G12D and SOS1 (Homo sapiens, UniProt P01116, G12D); assay: Inhibition of KRAS-G12D/SOS1 binding (Cisbio binding kit, 665/615 ratio), Effect Embodiment A; conditions: read-out: GTP-KRAS-G12D:SOS1 IC50
T1 construct: purchased
Description: Similarly, the first dilution point of the compound to be tested was its storage solution, and the solution was 3-fold diluted, with 11+0 points of dilution. Echo was used to transfer 0.2 μL gradient diluted solution of the compounds into a 384-well plate, with 2 duplicated wells for each compound, and the final concentration of DMSO was 1%. The solution was centrifuged for 1 min at 1000 rpm/min.
IC50 of the compounds was fitted by Graphpad Prism 8 nonlinear regression equation: […]
The IC50 (half inhibitory concentration) of the compound was obtained by using the following nonlinear fitting formula: […]

T1 sequence (P01116 1-188 isoform P01116-2 G12D): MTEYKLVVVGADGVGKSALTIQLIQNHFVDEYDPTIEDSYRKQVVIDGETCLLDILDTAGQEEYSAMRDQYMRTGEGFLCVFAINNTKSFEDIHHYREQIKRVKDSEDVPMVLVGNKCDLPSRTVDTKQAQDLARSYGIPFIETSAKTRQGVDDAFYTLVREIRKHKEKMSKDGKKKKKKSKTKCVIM

Row | Compound | IC50 [nM]
1 | CNCCN(C)c1nc(N2CC(N(C)C)C2)nc2c(F)c(-c3cc(O)cc4ccccc34)c(Cl)cc12 (single isomer, unassigned) [Compound 16a, (R or S)-4-(6-chloro-2-(3-(dimethylamino)azetidin-1-yl)-8-fluoro-4-(methyl(2-(methylamino)ethyl)amino)quinazolin-7-yl)naphthalen-2-ol] | 3490
2 | CCc1c(F)ccc2cc(O)cc(-c3c(Cl)cc4c(N5CC6CCC(C5)N6)nc(OC[C@H](C)CN5C6CCC5COC6)nc4c3F)c12 (single isomer, unassigned) [Compound 233a, 4-((7S or 7R)-2-((2R)-3-(3-oxa-8-azabicyclo[3.2.1]octan-8-yl)-2-methylpropoxy)-4-((1R,5S)-3,8-diazabicyclo[3.2.1]octan-3-yl)-6-chloro-8-fluoroquinazolin-7-yl)-5-ethyl-6-fluoronaphthalen-2-ol formate] | 3280
3 | CN(C)C1CN(c2nc(N3CC4CNCC4C3)c3cc(Cl)c(-c4cc(O)cc5ccccc45)c(F)c3n2)C1 (single isomer, unassigned) [Compound 14c, (R or S)-4-(6-chloro-2-(3-(dimethylamino)azetidin-1-yl)-8-fluoro-4-((3aR,6aR or 3aS,6aS)-hexahydro-pyrrolo[3,4-c]pyrrol-2(1H)-yl)quinazolin-7-yl)naphthalen-2-ol] | 9490
4 | N#Cc1cccc2cc(O)cc(-c3c(F)cc4c(N5CC6CCC(C5)N6)nc(OCCCN5C6CCC5COC6)nc4c3F)c12 (single isomer, unassigned) [Compound 278b, 8-((7R or 7S)-2-(3-(3-oxa-8-azabicyclo[3.2.1]octan-8-yl)propoxy)-4-((1R,5S)-3,8-diazabicyclo[3.2.1]octan-3-yl)-6,8-difluoroquinazolin-7-yl)-6-hydroxy-1-naphthonitrile diformate] | 2480
5 | Oc1cc(-c2c(Cl)cc3c(N4CC5CCC(C4)N5)nc(OC[C@@]45CCCN4C[C@H](F)C5)nc3c2F)c2c(F)c(F)ccc2c1 (single isomer, unassigned) [Compound 214b, 4-(R or S)-4-((1R,5S)-3,8-diazabicyclo[3.2.1]octane-3-yl)-6-chloro-8-fluoro-2-((2R,7aS)-2-fluorotetrahydro-1H-pyrrolidin-7a(5H)-yl) methoxy) quinazolin-7-yl)-5,6-difluoronaphthalen-2-ol diformate] | 2660
6 | CN(C)C1CN(c2nc(C3CN(C(=N)N)C3)c3cc(Cl)c(-c4cc(O)cc5ccccc45)c(F)c3n2)C1 (single isomer, unassigned) [Compound 146] | 6930
7 | C#Cc1c(F)ccc2cccc(-c3c(F)cc4c(N5CC6CCC(C5)N6)nc(OC[C@@]56CCCN5C[C@H](F)C6)nc4c3F)c12 (single isomer, unassigned) [Compound 279b, (R or S)-4-((1R,5S)-3,8-diazacyclo[3.2.1]octyl-3-yl)-7-(8-ethynyl-7-fluoronaphthalen-1-yl)-6,8-difluoro-2-((2R,7aS)-2-fluorotetrahydro-1H-pyrrolidin-7a(5H)-yl)methoxy)quinazoline formate] | 1390
8 | CN(C)CCCn1c(=O)nc(N2CC3CCC(C2)N3)c2cc(Cl)c(-c3cc(O)cc4ccccc34)c(F)c21 (single isomer, unassigned) [Compound 74a, 4-((1R,5S)-3,8-diazabicyclo[3.2.1]octan-3-yl)-6-chloro-1-(3-(dimethylamino)propyl)-8-fluoro-7-((S or R)-3-hydroxynaphthalen-1-yl)quinazolin-2(1H)-one] | 100000
9 | CN(C)C1CN(c2nc(N3CC(N(C)C)C3)c3cc(Cl)c(-c4cc(O)cc5ccccc45)c(F)c3n2)C1 (single isomer, unassigned) [Compound 9a, (R or S)-4-(6-chloro-2,4-bis(3-(dimethylamino)azetidin-1-yl)-8-fluoro-7-yl)naphthalen-2-ol] | 81600
10 | CN(C)C1CN(c2nc(N3C[C@@H]4CC[C@H]3CN4)c3cc(Cl)c(-c4cc(O)cc5ccccc45)c(F)c3n2)C1 (single isomer, unassigned) [Compound 4b, (S or R)-4-(4-((1S,4S)-2,5-diazabicyclo [2.2.2]octan-2-yl)-6-chloro-2-(3-(dimethylamino)azetidin-1-yl)-8-fluoro-quinazolin-7-yl)naphthalen-2-ol] | 4590
11 | CN1CCC[C@H]1COc1nc(N2C3CCC2C2CCC3N2)c2cc(Cl)c(-c3cc(O)cc4ccccc34)c(F)c2n1 (single isomer, unassigned) [Compound 152a, 4-((S or R)-6-chloro-8-fluoro-2-((S)-1-methylpyrrolidin-2-yl)methoxy)-4-((1R,2R,5S,6S)-9,10-diazatricyclo[4.2.1.1^2,5]decan-9-yl)quinazolin-7-yl)naphthalen-2-ol dihydrochloride] | 1050
12 | CCc1cccc2cc(O)cc(-c3c(F)cc4c(N5CC6CCC(C5)N6)nc(OCCCN5C[C@@H](C)O[C@@H](C)C5)nc4c3F)c12 (single isomer, unassigned) [Compound 283b, (R or S)-4-(4-((1R,5S)-3,8-diazacyclo[3.2.1]octan-3-yl)-2-(3-((2S,6R)-2,6-dimethylmorpholinyl)propoxy)-6,8-difluoroquinazolin-7-yl)-5-ethylnaphthalen-2-ol dihydrochloride] | 9180
13 | CCc1cccc2cc(O)cc(-c3c(F)cc4c(N5CC6CCC(C5)N6)nc(OC[C@@]56CCCN5C[C@H](F)C6)nc4c3F)c12 (single isomer, unassigned) [Compound 285b, (R or S)-4-(4-((1R,5S)-3,8-diazacyclo[3.2.1]octan-3-yl)-6,8-difluoro-2-((2R,7aS)-2-fluorotetrahydro-1H-pyrrolidin-7a(5H-yl)methoxy)quinazolin-7-yl)-5-ethylnaphthalen-2-ol dihydrochloride] | 1460

More lines, now with the values ahead:

Row | IC50 [nM] | Compound
14 | 120 | CN1CCC1CCOc1nc(N2CC3CCC(C2)N3)c2cc(Cl)c(-c3cc(O)cc4ccccc34)c(F)c2n1 (single isomer, unassigned) [Compound 112b, 4-((S or R)-4-((1R,5S)-3,8-diazabicyclo[3.2.1]octan-3-yl)-6-chloro-8-fluoro-2-(2-((R or S)-1-methylazetidin-2-yl)ethoxy)quinazolin-7-yl)naphthalen-2-ol carboxylate]
15 | 514 | N=[S+]1([O-])CC2CCC(C1)N2CCCOc1nc(N2CC3CCC(C2)N3)c2cc(Cl)c(-c3cc(O)cc4ccccc34)c(F)c2n1 (single isomer, unassigned) [Compound 213a, (1R,3S or 3R,5S)-8-(3-((4-((1R,5S)-3,8-diazabicyclo[3.2.1]octan-3-yl)-6-chloro-8-fluoro-7-(3-hydroxynaphthalen-1-yl)quinazolin-2-yl)oxy)propyl)-3-imino-3λ^6-thia-8-azabicyclo[3.2.1]octane 3-oxide formate]
16 | 310 | CCc1c(F)ccc2cccc(-c3c(F)cc4c(N5CC6CCC(C5)N6)nc(OC[C@@]56CCCN5C[C@H](F)C6)nc4c3F)c12 (single isomer, unassigned) [Compound 280b, 4-((1R,5S)-3,8-diazacyclo[3.2.1]octan-3-yl)-7-((R or S)-8-ethyl-7-fluoronaphthalen-1-yl)-6,8-difluoro-2-((2R,7aS)-2-fluorotetrahydro-1H-pyrrolidin-7a(5H)-yl)methoxy)quinazoline dihydrochloride]
17 | 1360 | CN(C)C1CN(c2nc(N3C[C@H]4C[C@@H]3CN4)c3cc(Cl)c(-c4cc(O)cc5ccccc45)c(F)c3n2)C1 (single isomer, unassigned) [Compound 3a, (R or S)-4-(4-((1R,4R)-2,5-diazabicyclo [2.2.1]heptan-2-yl)-6-chloro-2-(3-(dimethylamino)azetidin-1-yl)-8-fluoro-quinazolin-7-yl)naphthalen-2-ol]
18 | 117 | CN1CCC[C@H]1COc1nc(N2CC3CCC(C2)N3)c2cc(F)c(-c3cc(O)cc4ccccc34)c(F)c2n1 (single isomer, unassigned) [Compound 160b, (S or R) 4-(4-((1R,5S)-3,8-diazabicyclo[3.2.1]octan-3-yl)-6,8-difluoro-2-((S)-1-methylpyrrolidin-2-yl)methoxy)quinazolin-7-yl)naphthalen-2-ol dihydrochloride]
19 | 219 | CN1CCOC[C@H]1COc1nc(N2CC3CCC(C2)N3)c2cc(Cl)c(-c3cc(O)cc4ccccc34)c(F)c2n1 (single isomer, unassigned) [Compound 122, 4-((S or R)-4-((1R,5S)-3,8-diazabicyclo[3.2.1]octan-3-yl)-6-chloro-8-fluoro-2-((S)-4-methylmorpholin-3-yl)methoxy)quinazolin-7-yl)naphthalen-2-ol dihydrochloride]
20 | 581 | CC1(C)CN(CCCOc2nc(N3CC4CCC(C3)N4)c3cc(Cl)c(-c4cc(O)cc5ccccc45)c(F)c3n2)CC(C)(C)O1 (single isomer, unassigned) [Compound 222, 4-((S or R)-4-((1R,5S)-3,8-diazabicyclo[3.2.1]octan-3-yl)-6-chloro-8-fluoro-2-(3-(2,2,6,6-tetramethylmorpholinyl)propoxy)quinazolin-7-yl)naphthalen-2-ol formate]
21 | 965 | CN1CCC[C@H]1COc1nc(N2CCN[C@@H](CC#N)C2)c2cc(Cl)c(-c3cc(O)cc4ccccc34)c(F)c2n1 (single isomer, unassigned) [Compound 153a, 2-((S)-4-((S or R)-6-chloro-8-fluoro-7-(3-hydroxynaphthalen-1-yl)-2-((S)-1-methylpyrrolidin-2-yl)methoxy)quinazolin-4-yl)piperazin-2-yl)acetonitrile]
22 | 87.6 | CN1C[C@H]2C[C@H]2[C@H]1COc1nc(N2CC3CCC(C2)N3)c2cnc(-c3cc(O)cc4ccccc34)c(F)c2n1 [Compound 141, 4-(4-((1R,5S)-3,8-diazabicyclo[3.2.1]octan-3-yl)-8-fluoro-2-((1R,2S,5R)-3-methyl-3-azabicyclo[3.1.0]hexan-2-yl)methoxy)pyridin[4,3-d]pyrimidin-7-yl)naphthalen-2-ol dihydrochloride]
